Measured values as given in patent US20250121076A1, “POLYPEPTIDE DRUG CONJUGATE HAVING NOVEL STRUCTURE AND APPLICATION THEREOF” (MEDSHINE DISCOVERY INC., priority 2021, published 2025).
Counter-ions that a name gives are not always drawn. Like-named read-outs stand apart in the source and are kept apart here. Starred links: 1 amine or outer side, 2 acyl side, 3 side chain; linkers in the order of their positions; H or OH if unused. Positions of bridges follow the written chain, without caps; N, C: chain ends. Non-standard residues stand in square brackets, D forms with d. Residues, ends and D or L forms follow the SMILES beside them. Chains are numbered I, II in the order given. *: point of attachment. TATA = O=C(CC[*:1])N1CN(C(=O)CC[*:2])CN(C(=O)CC[*:3])C1; Dolaproine = CO[C@@H]([C@@H]1CCCN1)[C@@H](C)C(=O)O; Dil = CC[C@H](C)[C@H](NC)[C@@H](CC(=O)O)OC; X2 = O=C(CCCC(=O)[*:2])NCCC(=O)[*:1]; PABC = O=C(OCc1ccc(N[*:1])cc1)[*:2]; X1 = C[C@@H](N*)[C@@H](O)c1ccccc1; Hyp = O=C(O)[C@@H]1C[C@@H](O)CN1; hArg = N=C(N)NCCCC[C@H](N)C(=O)O; Cit = NC(=O)NCCC[C@H](N)C(=O)O; NMeV = CN[C@H](C(=O)O)C(C)C; hCys = N[C@@H](CCS)C(=O)O; Sar = CNCC(=O)O

Columns and labels:
[1] = target: T1, Human EphA2 (Homo sapiens, UniProt P29317); assay: Binding capacity test to EphA2 protein (SPR, Biacore 8K)
T1 construct: purchased Sino Biological 13926-H08HD
T1 sequence (P29317 24-534 limits assumed): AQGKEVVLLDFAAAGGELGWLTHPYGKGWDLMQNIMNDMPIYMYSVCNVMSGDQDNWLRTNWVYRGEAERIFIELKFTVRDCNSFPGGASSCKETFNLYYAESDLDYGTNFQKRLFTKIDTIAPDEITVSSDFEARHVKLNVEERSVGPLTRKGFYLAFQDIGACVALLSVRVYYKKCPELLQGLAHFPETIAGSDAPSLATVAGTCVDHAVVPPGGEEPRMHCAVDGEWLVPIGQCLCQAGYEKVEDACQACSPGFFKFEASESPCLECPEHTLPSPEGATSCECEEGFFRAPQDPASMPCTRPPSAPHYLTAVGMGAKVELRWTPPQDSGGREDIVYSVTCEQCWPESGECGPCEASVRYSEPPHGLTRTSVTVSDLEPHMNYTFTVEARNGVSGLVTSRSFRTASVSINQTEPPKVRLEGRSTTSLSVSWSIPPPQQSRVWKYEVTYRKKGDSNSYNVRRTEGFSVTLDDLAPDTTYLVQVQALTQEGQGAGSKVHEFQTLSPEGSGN
Procedure: To detect the affinity of the compound to be tested to the target protein EphA2 using the SPR method.
• Biacore 8K (GE Healthcare). • 96-well Plate (Cat #650101, greiner bio-one) • CM5 chip (Cat #BR-1005-30, GE Healthcare) • Amine Coupling Kit (Cat #BR-1000-50, GE Healthcare) EDC NHS 1 M ethanolamine. • 10 mM sodium acetate pH 4.5 (Cat #BR-1003-50, GE Healthcare) • DMSO (Cat #D4540, Sigma) • P20 (Cat #BR-1000-54, GE Healthcare). • PBS (Cat #BR-1006-72, GE Healthcare). • EphA2 (Cat #13926-H08HD, Sino Biological)
In this experiment, the amino coupling method was used. The target protein EphA2 was directly immobilized on the CM5 chip using Biacore 8K. The compound to be tested as an analyte was then diluted to a required concentration gradient with a buffer (10 mM PBS, pH 7.4, 137 mM NaCl, 2.7 mM KCl, 5% DMSO, and 0.05% P20) for multi-cycle kinetic detection, in which each cycle is formed by 180 seconds of sample injection and 180 seconds of dissociation, and then the next cycle was performed, to obtain kinetic analysis data on the affinity of the target protein EphA2 to the compound to be tested. The final data were subjected to Kinetics fitting analysis based on a 1:1 model using Biacore Insight Evaluation Software (V 2.0.15.12933).
1) Preparation of the buffer: 10 mM PBS, pH 7.4, 137 mM NaCl, 2.7 mM KCl, 5% DMSO, and 0.05% P20.
2) Activation of the CM5 chip: The CM5 chip was activated with 400 mM EDC and 100 mM NHS at a flow rate of 10 μL/min for 420 seconds.
3) Coupling of the target protein: The target protein was diluted to 10 μg/mL with 10 mM sodium acetate (pH 4.5) and coupled at a flow rate of 10 μL/min for 284 s. The 1 #, 2 #, and 3 #channels on the chip were used in the experiment, and the coupling results were 1639.9RU, 1747.8RU, and 1702.2RU, respectively.
4) Blocking of the CM5 chip: The CM5 chip was blocked with 1 M ethanolamine at a flow rate of 10 μL/min for 420 seconds.
5) Analyte concentration: The compound to be tested was diluted with the buffer. The compound to be tested was diluted from 100 nM to 0.78 nM in a 2-fold gradient.
6) Sample injection analysis: Each concentration of the working solution of the compound to be tested corresponded to one cycle, with a flow rate of 30 μL/min for binding for 180 seconds and dissociating for 180 seconds. The last cycle was a 5% DMSO solvent correction cycle. 7) All results were subjected to kinetics fitting analysis based on a 1:1 model.
The experimental data of five effective concentrations of the compounds of the present invention were selected for Kinetics fitting analysis based on a 1:1 model using Biacore Insight Evaluation Software (V 2.0.15.12933).

[2] = Pharmacokinetic analysis in Cynomolgus macaque plasma; format: in vivo, Cynomolgus macaques; details: MMAE as potential metabolite in plasma after single IV 1 mg/kg acetate salt of PDC_8, Cynomolgus macaques
Procedure: To test the pharmacokinetics of the compounds of the present invention in Cynomolgus macaques.
(§1) The pharmacokinetic characteristics of the compound after intravenous injection and oral administration were tested in Cynomolgus macaques according to a standard protocol. The compound of the present invention was formulated into a clear solution using 50 mM acetate buffer (pH=5) in 10% sucrose as a vehicle. Two Cynomolgus macaques were given a single intravenous injection of 1 mg/kg of the compound to be tested. Whole blood was collected at time points of 0.083, 0.25, 0.5, 1, 2, 4, 8, and 24 hours after administration to get plasma. The concentration of the compound to be tested and the concentration of its potential metabolite MMAE were analyzed by the LC-MS/MS method, and the pharmacokinetic parameters were calculated by Phoenix WinNonlin software.

[3] = Pharmacokinetic analysis in rat plasma (6.1, 2 mg/kg); format: in vivo, SD rats; details: MMAE as potential metabolite in plasma after single IV 2 mg/kg acetate salt of PDC_8, SD rats
Procedure: (§2) Experimental purpose: To test the pharmacokinetics of the compounds of the present invention in SD rats.
as §1, with “6.1 The pharmacokinetic” for “The pharmacokinetic”, “tested in rats according to” for “tested in Cynomolgus macaques according to”, “The compound to be tested was formulated” for “The compound of the present invention was formulated”, “vehicle. Two SD rats were given” for “vehicle. Two Cynomolgus macaques were given”, “injection of 2 mg/kg of” for “injection of 1 mg/kg of”

[4] = In vivo pharmacokinetic analysis in mice; design: species or system CD-1 mice; details: MMAE as potential metabolite in plasma after single IV 2 mg/kg acetate salt of PDC_8, CD-1 mice
Procedure: To test the pharmacokinetics of the compounds of the present invention in CD-1 mice
as §1, with “in CD-1 mice” for “in Cynomolgus macaques”, “Two mice” for “Two Cynomolgus macaques”, “of 2” for “of 1”, “pharmacokinetic parameters, such as maximal concentration (Cmax), clearance (Cl), half-life (T1/2), […] (Vdss), and area under the concentration-time curve (AUC0-last),” for “pharmacokinetic parameters”

[5] = Pharmacokinetic analysis in rat plasma at different doses (6.2); format: in vivo, SD rats
Procedure: as §2
6.2 The pharmacokinetic characteristics of the compound after intravenous injection and oral administration were tested in rats according to a standard protocol. The compound to be tested was formulated into a clear solution using 50 mM acetate buffer (pH=5) in 10% sucrose as a vehicle. Three male SD rats were given a single intravenous injection of 2.5 mg/kg, 3.75 mg/kg, or 5 mg/kg of the compound to be tested. Whole blood was collected at time points of 0.083, 0.25, 0.5, 1, 4, and 24 hours after administration to get plasma. The concentration of the compound to be tested and the concentration of its potential metabolite MMAE were analyzed by the LC-MS/MS method, and the pharmacokinetic parameters were calculated.

[6] = MMAE as potential metabolite after single IV 2.5 mg/kg acetate salt of PDC_8, male SD rats
[7] = MMAE as potential metabolite after single IV 3.75 mg/kg acetate salt of PDC_8, male SD rats
[8] = MMAE as potential metabolite after single IV 5 mg/kg acetate salt of PDC_8, male SD rats

CC[C@H](C)[C@@H]([C@@H](CC(=O)N1CCC[C@H]1[C@H](OC)[C@@H](C)C(=O)N[C@H](C)[C@@H](O)c1ccccc1)OC)N(C)C(=O)[C@@H](NC(=O)[C@H](C(C)C)N(C)C(=O)OCc1ccc(NC(=O)[C@H](CCCNC(N)=O)NC(=O)[C@@H](NC(=O)CCCC(=O)NCCC(=O)N(C)CC(=O)N(C)CC(=O)N(C)CC(=O)N(C)CC(=O)N(C)CC(=O)N(C)CC(=O)N(C)CC(=O)N(C)CC(=O)N(C)CC(=O)N(C)CC(=O)N[C@@H](C)C(=O)N[C@@H](CCCCNC(=N)N)C(=O)N[C@@H](CC(=O)O)C(=O)N[C@H]2CCSCCC(=O)N3CN4CN(C3)C(=O)CCSC[C@H](NC(=O)[C@H](CC(C)C)NC(=O)[C@@H]3CCCN3C(=O)[C@H](CC(N)=O)NC(=O)[C@H](C(C)C)NC(=O)[C@H](CC(C)C)NC(=O)[C@@H]3C[C@@H](O)CN3C2=O)C(=O)N[C@@H](CC(C)C)C(=O)N[C@@H](Cc2c[nH]cn2)C(=O)N2CCC[C@H]2C(=O)N[C@H](CC(=O)O)C(=O)N[C@@H](Cc2c[nH]c3ccccc23)C(=O)N[C@@H](CCCCNC(=N)N)C(=O)N[C@H](C(N)=O)CSCCC4=O)C(C)C)cc1)C(C)C [Acetate salt of PDC_2, MMAE-PABC-Cit-Val-Glutaryl-β-Ala-Sar10-Ala-hArg-Asp-hCys-Hyp-Leu-Val-Asn-Pro-Leu-Cys-Leu-His-Pro-dAsp-Trp-hArg-Cys-NH2, TATA] (I: [Sar][Sar][Sar][Sar][Sar][Sar][Sar][Sar][Sar][Sar]A[hArg]D[hCys][Hyp]LVNPLCLHP[dD]W[hArg]C-NH2 / II: V[Cit][PABC][NMeV]V[Dil][Dolaproine]-X1; linker I:14-I:21-I:28 via TATA; linker I:N-II:N via X2)
Kd ([1]; read-out: Human EphA2 SPR kD, SPR, kinetics fit 1:1 model): 33 nM

CC[C@H](C)[C@@H]([C@@H](CC(=O)N1CCC[C@H]1[C@H](OC)[C@@H](C)C(=O)N[C@H](C)[C@@H](O)c1ccccc1)OC)N(C)C(=O)[C@@H](NC(=O)[C@H](C(C)C)N(C)C(=O)OCc1ccc(NC(=O)[C@H](CCCNC(N)=O)NC(=O)[C@@H](NC(=O)CCCC(=O)NCCC(=O)N(C)CC(=O)N(C)CC(=O)N(C)CC(=O)N(C)CC(=O)N(C)CC(=O)N(C)CC(=O)N(C)CC(=O)N(C)CC(=O)N(C)CC(=O)N(C)CC(=O)N[C@H]2CCCCNC(=O)C[C@@H](C(=O)N[C@H]3CSCCC(=O)N4CN5CN(C4)C(=O)CCSC[C@H](NC(=O)[C@H](CC(C)C)NC(=O)[C@@H]4CCCN4C(=O)[C@H](CC(N)=O)NC(=O)[C@H](C(C)C)NC(=O)[C@H](CC(C)C)NC(=O)[C@@H]4C[C@@H](O)CN4C3=O)C(=O)N[C@@H](CC(C)C)C(=O)N[C@@H](Cc3c[nH]cn3)C(=O)N3CCC[C@H]3C(=O)N[C@H](CC(=O)O)C(=O)N[C@@H](Cc3c[nH]c4ccccc34)C(=O)N[C@@H](CCCCNC(=N)N)C(=O)N[C@H](C(N)=O)CSCCC5=O)NC(=O)[C@H](CCCCNC(=N)N)NC2=O)C(C)C)cc1)C(C)C [Acetate salt of PDC_4] (I: [Sar][Sar][Sar][Sar][Sar][Sar][Sar][Sar][Sar][Sar]K[hArg]DC[Hyp]LVNPLCLHP[dD]W[hArg]C-NH2 / II: V[Cit][PABC][NMeV]V[Dil][Dolaproine]-X1; lactam I:11-I:13; linker I:14-I:21-I:28 via TATA; linker I:N-II:N via X2)
Kd [1]: 13.3 nM

CC[C@H](C)[C@@H]([C@@H](CC(=O)N1CCC[C@H]1[C@H](OC)[C@@H](C)C(=O)N[C@H](C)[C@@H](O)c1ccccc1)OC)N(C)C(=O)[C@@H](NC(=O)[C@H](C(C)C)N(C)C(=O)OCc1ccc(NC(=O)[C@H](CCCNC(N)=O)NC(=O)[C@@H](NC(=O)CCCC(=O)NCCC(=O)N(C)CC(=O)N(C)CC(=O)N(C)CC(=O)N(C)CC(=O)N(C)CC(=O)N(C)CC(=O)N(C)CC(=O)N(C)CC(=O)N(C)CC(=O)N(C)CC(=O)N[C@H]2CCCCNC(=O)C[C@@H](C(=O)N[C@H]3CSCCC(=O)N4CN5CN(C4)C(=O)CCSC[C@H](NC(=O)[C@H](CC(C)C)NC(=O)[C@@H]4CCCN4C(=O)[C@H](CC(N)=O)NC(=O)[C@H](C(C)C)NC(=O)[C@H](CC(C)C)NC(=O)[C@@H]4C[C@@H](O)CN4C3=O)C(=O)N[C@@H](CC(C)C)C(=O)N[C@@H](Cc3c[nH]cn3)C(=O)N3CCC[C@H]3C(=O)N[C@H](CC(=O)O)C(=O)N[C@@H](Cc3c[nH]c4ccccc34)C(=O)N[C@@H](CCCCNC(=N)N)C(=O)N[C@H](C(N)=O)CCSCCC5=O)NC(=O)[C@H](CCCCNC(=N)N)NC2=O)C(C)C)cc1)C(C)C [Acetate salt of PDC_5] (I: [Sar][Sar][Sar][Sar][Sar][Sar][Sar][Sar][Sar][Sar]K[hArg]DC[Hyp]LVNPLCLHP[dD]W[hArg][hCys]-NH2 / II: V[Cit][PABC][NMeV]V[Dil][Dolaproine]-X1; lactam I:11-I:13; linker I:14-I:21-I:28 via TATA; linker I:N-II:N via X2)
Kd [1]: 6.73 nM

CC[C@H](C)[C@@H]([C@@H](CC(=O)N1CCC[C@H]1[C@H](OC)[C@@H](C)C(=O)N[C@H](C)[C@@H](O)c1ccccc1)OC)N(C)C(=O)[C@@H](NC(=O)[C@@H](NC)C(C)C)C(C)C [MMAE, monomethyl auristatin E] (H-[NMeV]V[Dil][Dolaproine]-X1)
AUC0-last [2]: 0.0288 µM·h | Cmax [2]: 5.6 nM | AUC0-last [3]: 0.0374 µM·h | Cmax [3]: 23.5 nM | AUC0-last [4]: 0.0515 µM·h | Cmax [4]: 55 nM | AUC0-last [5, 6]: 0.058 µM·h | Cmax [5, 6]: 29 nM | AUC0-last [5, 7]: 0.185 µM·h | Cmax [5, 7]: 39 nM | AUC0-last [5, 8]: 0.435 µM·h | Cmax [5, 8]: 52 nM
